Test results reported in patent publication US12460317B2 (The Texas A&M University System, priority 2019, dated 2025).
Starred links: 1 amine or outer side, 2 acyl side, 3 side chain; linkers in the order of their positions; H or OH if unused. Positions of bridges follow the written chain, without caps; N, C: chain ends. Residues, ends and D or L forms follow the SMILES beside them. *: point of attachment. 5FAM = O=C1OC2(c3ccc(O)cc3Oc3cc(O)ccc32)c2ccc(C(=O)*)cc21; CH2CH2CO = O=C(CC[*:1])[*:2]

Columns and labels:
[1] = physiological conditions; cited from earlier work
HDAC8 = HDAC8 (Homo sapiens, UniProt Q9BY41); experiment: biochemical
Chain of HDAC8 (Q9BY41 whole entry): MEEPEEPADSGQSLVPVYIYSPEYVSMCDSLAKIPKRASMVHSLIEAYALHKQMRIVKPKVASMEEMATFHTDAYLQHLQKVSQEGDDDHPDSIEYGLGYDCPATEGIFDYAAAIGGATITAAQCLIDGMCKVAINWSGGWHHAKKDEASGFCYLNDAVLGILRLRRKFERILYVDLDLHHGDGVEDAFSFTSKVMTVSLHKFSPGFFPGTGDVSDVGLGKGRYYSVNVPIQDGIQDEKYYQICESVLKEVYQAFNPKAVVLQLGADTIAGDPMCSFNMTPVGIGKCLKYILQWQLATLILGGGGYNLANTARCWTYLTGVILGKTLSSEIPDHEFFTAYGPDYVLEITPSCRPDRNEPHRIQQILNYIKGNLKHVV
Description: Applicants incubated a 25 nM 5-FAM-conjugated cyclic peptide and different concentrations of a target protein (160 nM to 160 μM) in black 96-well plates in a 200 μL total volume that was adjusted by adding a PBS buffer. The fluorescence polarization was measured in a microplate reader at Ex/Em=490 nm/520 nm.

SMILES	second-order rate constant of reaction with a thiol [1]	Kd (HDAC8)
C=CC(=O)NCCCC[C@H](N)C(=O)O [AcrK, N^ε-acryloyl-lysine]	0.004 M⁻¹ s⁻¹	
CSCC[C@@H]1NC(=O)[C@H](Cc2c[nH]c3ccccc23)NC(=O)[C@H](CC(C)C)NC(=O)[C@H](CO)NC(=O)[C@H](CCC(N)=O)NC(=O)[C@@H](N)CSCCC(=O)NCCCC[C@@H](C(=O)N[C@@H](CCCCNC(=O)c2ccc3c(c2)C(=O)OC32c3ccc(O)cc3Oc3cc(O)ccc32)C(N)=O)NC(=O)[C@H](CC(N)=O)NC1=O [CycH8a, CQSLWMNX] (H-CQSLWMNKK(5FAM)-NH2; linker 1-8 via CH2CH2CO)		7.1 µM
